Key:
[1] = tested on: PGF2a-stimulated rat uterine muscle contraction; assay: Inhibition of PGF2a-stimulated rat uterine muscle strip contraction (organ bath); assay type: cell-based; details: 20 μg/ml compound pretreatment for 10 min before PGF2a (1 μM)
Method: (§1) Uterine relaxing activities on OTC- and KCl-stimulated rat uterine muscle contraction were carried out according to the method described by Ostad S N, Soodi M, Shariffzadeh M, Khorshidi N, and Marzban H. (The effect of fennel essential oil on uterine contraction as a model for dysmenorrhea, pharmacology and toxicology study. Journal of Ethnopharmacology 2001; 76: 299-304.). Female virgin Sprague-Dawley rats (200 g to 300 g) were obtained from the Laboratory Animal Center at Yang-Ming University. They were primed with 5 mg/kg of estradiol (Sigma-Aldrich) 24 hours before the experiments, and then sacrificed by CO2 asphyxiation. Uterine strips free from adhering tissues were mounted under a resting tension of 1 g in a 10 ml organ bath containing dejalon solution gassed with carbogen (95% O2 and 5% CO2) at 31° C., which were then allowed to equilibrate for at least 1 hour. To evaluate the effect on the contractile response induced by PGF2a, a modified Locke-Ringer solution and a maintained temperature of 28° C. were used according to the method described by Murata. P, Hayakawa T, Satoh K, Kase Y, Ishige A, and Sasaki H. (Effects of Dai-kenchu-to, a herbal medicine, on uterine and intestinal motility. Phytotherapy Research 2001; 15: 302-6). Contractions were recorded by force displacements transducers (Grass Instruments USA) using MP100 workstation software (Biopac Systems USA) on a PC. […]

[2] = tested on: KCl-stimulated rat uterine muscle contraction; assay: Inhibition of KCl-stimulated rat uterine muscle strip contraction (organ bath); assay type: cell-based; details: 20 μg/ml compound pretreatment for 10 min before KCl (60 mM)
Method: as §1

With `C=CC(C)(O)CCC=C(C)C` (stereo not shown) [linalool] the “inhibition of muscle contraction” value [1] was “didn't show obvious inhibition” and the inhibition at 20 µg/mL [2] was 27 to 46%.
In the case of `Cc1ccc(C(C)C)c(O)c1` [thymol], the “inhibition of muscle contraction” value [1] is reported as “didn't show obvious inhibition” and the inhibition at 20 µg/mL [2] is reported as 27 to 46%.
